Source: paper PMC13083723 (Patterns, 2026)
Structures can show the parent of a compound that is named as a salt. Where two headings read alike, the source gives them in different places.

What was measured:
SARS-CoV-2 [1] = conditions: cited from earlier work; for CaCo2 CPE inhibition %: Caco-2, 20 µM
SARS-CoV-2 [2] = conditions: cited from earlier work; for Vero-E6 CPE inhibition %: 10 µM
Vero-E6 cells = assay: cells; assay type: cell-based
[3] = Chlorocebus sabaeus, Vero C1008, 24 h; read-out: PLD Effect in % 5 µM
[4] = Chlorocebus sabaeus, Vero C1008, 24 h; read-out: PLD Effect in % 10 µM
[5] = Chlorocebus sabaeus, Vero C1008, 24 h; read-out: PLD Effect in % 20 µM
[6] = Chlorocebus sabaeus, Vero C1008; read-out: PLD EC50
[7] = Chlorocebus sabaeus, Vero C1008, read-out: PLD EC50 µM

Structure (SMILES)	CaCo2 CPE inhibition % (SARS-CoV-2 [1])	Vero-E6 CPE inhibition % (SARS-CoV-2 [2])	PLD Effect in % 5 µM (Vero-E6 cells; 5 µM)	PLD Effect in % 10 µM (Vero-E6 cells; 10 µM)	PLD Effect in % 20 µM (Vero-E6 cells; 20 µM)	activation at 5 µM (Vero-E6 cells; [3]) [%]	activation at 10 µM (Vero-E6 cells; [4]) [%]	activation at 20 µM (Vero-E6 cells; [5]) [%]	further results
COc1ccccc1C1(O)CCN(CCCn2c3ccccc3c3ccccc32)CC1 [NNC-05-2090, reference compound]	71.83%	-0.32%	128.41%	178.14%	118.98%	–	–	–	EC50 (Vero-E6 cells; read-out: PLD EC50): 4.91 µM
CCN1CCN(Cc2ccc(C(=O)Nc3ccc(C)c(Oc4ccc5c(c4)CC(=O)N5)c3)cc2C(F)(F)F)CC1 [DDR1-IN-1, reference compound]	77.58%	-0.37%	–	–	–	55.7	75.8	21.8	–
O=C1Nc2ccc(Cl)c3c2C1(CCCCN1CC=C(c2ccc(Cl)cc2)CC1)CCC3 (stereo not shown) [DR-4485, reference compound]	82.83%	-0.26%	94.34%	201.85%	-16.80%	–	–	–	–
CSc1ccccc1Nc1nc(N2CCNCC2)nc2c(NCC3CC3)ncnc12 [KHK-IN-1, reference compound]	toxic	toxic	toxic	toxic	toxic	–	–	–	CaCo2 EC50 µM (SARS-CoV-2 [1]): toxic; Vero-E6 EC50 µM (SARS-CoV-2 [2]): toxic; PLD EC50 µM (Vero-E6 cells): toxic
COc1cc2c(Nc3ccc(Br)cc3F)ncnc2cc1OCC1CCN(C)CC1 [Vandetanib (ZD6474), Vandetanib, reference compound]	51.24	0.29	–	–	–	129	136	-32.7	EC50 (Vero-E6 cells; [6]): 1.05 µM
CN(C)CCNc1nc2cc(O)ccc2c2c1C(=O)c1ccccc1-2 [TAS-103, reference compound]	92.56%	-0.08%	135.39%	172.31%	121.21%	–	–	–	EC50 (Vero-E6 cells; read-out: PLD EC50): 2.29 µM
CCOc1cc2ncc(C#N)c(Nc3ccc(F)c(Cl)c3)c2cc1NC(=O)/C=C/CN(C)C [Pelitinib (EKB-569), Pelitinib, reference compound]	83.39%	-0.31	–	–	–	76.1	85.5	101	–
Cc1cc(Nc2ncc(Cl)c(Nc3ccccc3S(=O)(=O)C(C)C)n2)c(OC(C)C)cc1C1CCNCC1 [Ceritinib, reference compound]	59.98%	-0.35%	–	–	–	91.9	116	137	EC50 (Vero-E6 cells; [7]): 2.18 µM
O=C(Nc1ccc(CN2CCOCC2)cc1)c1ccc(-c2cccc(Cl)c2)o1 [CID-2011756, reference compound]	96.96%	0.15	27.66%	31.32%	55.98%	–	–	–	EC50 (Vero-E6 cells; read-out: PLD EC50): > 20 µM
CN(C)CC/C=C1/c2ccccc2Sc2ccc(Cl)cc21 [chlorprothixene hydrochloride, reference compound]	55.65%	0.27%	–	–	–	124	113	192	EC50 (Vero-E6 cells; [7]): 2.36 µM
Cc1ccc(C(=O)N(CCCN)[C@@H](c2nc3cc(Cl)ccc3c(=O)n2Cc2ccccc2)C(C)C)cc1 [ispinesib (SB-715992), ispinesib, reference compound]	91.86%	-0.29	–	–	–	207	205	-43.2	EC50 (Vero-E6 cells; [6]): 1.81 µM
COc1cc(C)c2c(Oc3cccc(C(F)(F)F)c3)c(OC)cc(NC(C)CCCN)c2n1 (stereo not shown) [tafenoquine, reference compound]	toxic	toxic	toxic	toxic	toxic	–	–	–	CaCo2 EC50 µM (SARS-CoV-2 [1]): toxic; Vero-E6 EC50 µM (SARS-CoV-2 [2]): toxic; PLD EC50 µM (Vero-E6 cells): toxic
COC(=O)C1=C(C)NC(C)=C(C(=O)OCCCN2CCC(c3ccccc3)(c3ccccc3)CC2)[C@@H]1c1cccc([N+](=O)[O-])c1 [Dexniguldipine, reference compound]	97.57%	-0.15%	–	–	–	–	–	–	activation at 5 µM (Vero-E6 cells; Chlorocebus sabaeus, Vero C1008, 24 h, read-out: PLD Effect in % 5 µM): 83.1%; activation at 10 µM (Vero-E6 cells; Chlorocebus sabaeus, Vero C1008, 24 h, read-out: PLD Effect in % 10 µM): 115%; activation at 20 µM (Vero-E6 cells; Chlorocebus sabaeus, Vero C1008, 24 h, read-out: PLD Effect in % 20 µM): 127%; EC50 (Vero-E6 cells; [7]): 2.48 µM
COc1ccc(NC(=O)c2ccc(-c3ccc(-c4noc(C)n4)cc3C)cc2)cc1N1CCN(C)CC1 [GR-127935, reference compound]	53.73%	-0.76%	–	–	–	136	162	-40.2	EC50 (Vero-E6 cells; [7]): 1.12 µM
CNCc1ccc(C)c(NC(=O)c2ccc(Nc3nc(-c4ccccc4)c4ccccc4n3)cc2)c1 [BMS-833923 (XL139), reference compound]	68.77%	-0.37	–	–	–	72.2	59.1	-39.6	EC50 (Vero-E6 cells; [6]): 1.11 µM
COc1ccc(CCN(C)CCCOc2ccc(S(=O)(=O)c3c(C(C)C)c4ccccc4n3C)cc2)cc1OC [SR-33805 oxalate, reference compound]	67.72%	0.02	54.44%	86.07%	137.08%	–	–	–	EC50 (Vero-E6 cells; read-out: PLD EC50): 9.26 µM
COc1ccc(NC(=O)c2ccc(-c3ccc(-c4noc(C)n4)cc3C)cc2)cc1OCCN(C)C [SB-216641, reference compound]	57.65%	-0.22%	93.22%	104.74%	-42.60%	–	–	–	EC50 (Vero-E6 cells; read-out: PLD EC50): 1.19 µM
CN(C)C/C=C/C(=O)Nc1cc2c(Nc3ccc(F)c(Cl)c3)ncnc2cc1O[C@H]1CCOC1 [Afatinib, reference compound]	60.16%	-0.39%	–	–	–	129	249	146	–
O=C(c1ccc(F)c(F)c1Nc1ccc(I)cc1F)N1CC(O)([C@@H]2CCCCN2)C1 [Cobimetinib, reference compound]	61.58%	-0.31%	–	–	–	112	135	133	EC50 (Vero-E6 cells; [7]): 1.34 µM
CC(C)[C@H]1c2ccc(F)cc2CC[C@@]1(CCN(C)CCCc1nc2ccccc2[nH]1)OC(=O)C1CC1 [NNC-55-0396, reference compound]	58.09%	0%	87.06%	154.81%	-43.08%	–	–	–	EC50 (SARS-CoV-2 [2]; read-out: Vero-E6 EC50): 8.21 µM; EC50 (Vero-E6 cells; read-out: PLD EC50): 6.28 µM
CCCCN(CCCC)CCC(O)c1cc2c(Cl)cc(Cl)cc2c2cc(C(F)(F)F)ccc12 (stereo not shown) [halofantrine HCl, reference compound]	91.38%	0.17%	–	–	–	79.8	87	114	EC50 (Vero-E6 cells; [7]): 1.66 µM
